Laboratory results as given in patent US20200017495A1, “NOVEL HETEROCYCLIC COMPOUNDS AND THEIR USE IN PREVENTING OR TREATING BACTERIAL INFECTIONS” (priority 2017, published 2020).
Several values for one entry are separate records, joined by “and”; a condition that tells them apart may be missing. Equal values may be shown once. Read-outs that look alike come from different tables or passages of the source.

Legend:
Test in all cases: MIC of compounds alone and combined with antibacterials, broth microdilution (CLSI)
Format in all cases: cell-based
[1] = tested on: Enterobacter aerogenes (EAE) isolates
Experimental: (§1) Method 2: MIC of Compounds Alone and Combined with Antibacterials Against Bacterial Isolates
(§2) Compounds of the present invention were assessed against genotyped bacterial strains (Table 3, 4) alone or in combination with an antibacterial (Table 2). […] Log phase bacterial suspensions were adjusted to a final density of 5.10^5 CFU/mL in cation-adjusted Mueller-Hinton broth (ca-MHB; Becton-Dickinson and Company) and added to each well (98 μL). Microplates were incubated for 16-20 h at 35° C. in ambient air. The MIC of the compounds was defined as the lowest concentration of said compounds that prevented bacterial growth as read by visual inspection. The MIC of ATB at each compound concentration was defined as the lowest concentration of ATB that prevented bacterial growth as read by visual inspection.

[2] = tested on: Morganella morganii (MMO) isolates
Experimental: as §1, §2

[3] = tested on: Citrobacter freundii (CFR) isolates
Experimental: as §1, §2

[4] = tested on: Klebsiella oxytoca (KOX) isolates
Experimental: as §1, §2

[5] = tested on: Citrobacter koseri (CKR) isolates
Experimental: as §1, §2

[6] = tested on: Serratia marcescens (SMA) isolates
Experimental: as §1, §2

Structure (SMILES): CC1(C)S[C@@H]2[C@H](NC(=O)[C@H](N)c3ccc(O)cc3)C(=O)N2[C@H]1C(=O)O [AMX, Amoxicillin]
- MIC ATB in combination ([1]; EAE 49469, AF2 @ 8 μg/mL): <=0.25 μg/mL
- MIC ATB in combination ([1]; EAE 49469, CLA @ 4 μg/mL): >128 µg/mL
- MIC ATB in combination ([1]; EAE 200261, AF2 @ 8 μg/mL): 16 µg/mL
- MIC ATB in combination ([1]; EAE 200261, CLA @ 4 μg/mL): >128 µg/mL
- MIC ATB in combination ([1]; EAE UFR199, CLA @ 4 μg/mL): >128 µg/mL
- MIC ATB in combination ([1]; EAE UFR201, CLA @ 4 μg/mL): 16 µg/mL
- MIC ATB in combination ([1]; EAE UFR202, CLA @ 4 μg/mL): >128 µg/mL
- MIC ATB in combination ([1]; EAE UFR207, CLA @ 4 μg/mL): 32 µg/mL
- MIC ATB in combination ([1]; EAE UFR213, CLA @ 4 μg/mL): >128 µg/mL
- MIC ([1]; strain EAE 49469, genotype AmpC): >1024 µg/mL
- MIC ([1]; strain EAE 200261, genotype TEM-x, AmpC): >256 µg/mL
- MIC ([1]; strain EAE UFR199, genotype TEM-1b, SHV-12, KPC-2, OXA-9): >128 µg/mL
- MIC ([1]; strain EAE UFR201, genotype TEM-1, SHV-12, CTX-M-15): >128 µg/mL
- MIC ([1]; strain EAE UFR202, genotype TEM-24): >128 µg/mL
- MIC ([1]; strain EAE UFR213, genotype TEM-24): >128 µg/mL
- MIC [2]: >128 µg/mL
- MIC ATB in combination [2]: >128 µg/mL
- MIC ([2]; strain MMO 200321, genotype TEM-1, CTX-M-15, OXA-1): >256 µg/mL
- MIC ([2]; strain MMO UFR144, genotype TEM-1, CTX-M-15): >128 µg/mL
- MIC ([2]; strain MMO UFR240, genotype CTX-M-9): >128 µg/mL
- MIC ([2]; strain MMO UFR241, genotype TEM-1, CTX-M-15): >128 µg/mL
- MIC ([2]; strain MMO UFR242, genotype TEM-52): >128 µg/mL
- MIC ATB in combination ([3]; CFR UFR10, AF2 @ 8 μg/mL): 1 µg/mL
- MIC ATB in combination ([3]; CFR UFR10, CLA @ 4 μg/mL): >128 µg/mL
- MIC ATB in combination ([3]; CFR UFR11, AF2 @ 8 μg/mL): >128 µg/mL
- MIC ATB in combination ([3]; CFR UFR11, CLA @ 4 μg/mL): >128 µg/mL
- MIC ATB in combination ([3]; CFR UFR37, AF2 @ 8 μg/mL): <0.25 µg/mL
- MIC ATB in combination ([3]; CFR UFR37, CLA @ 4 μg/mL): >128 µg/mL
- MIC ATB in combination ([3]; CFR UFR83, AF2 @ 8 μg/mL): >128 µg/mL
- MIC ATB in combination ([3]; CFR UFR83, CLA @ 4 μg/mL): >128 µg/mL
- MIC ATB in combination ([3]; CFR UFR146, CLA @ 4 μg/mL): >128 µg/mL
- MIC ATB in combination ([3]; CFR UFR248, CLA @ 4 μg/mL): >128 µg/mL
- MIC ATB in combination ([3]; CFR UFR249, CLA @ 4 μg/mL): >128 µg/mL
- MIC ATB in combination ([3]; CFR UFR250, CLA @ 4 μg/mL): 128 µg/mL
- MIC ([3]; strain CFR UFR10, genotype OXA-48): >256 µg/mL
- MIC ([3]; strain CFR UFR11, genotype TEM-1, OXA-1, OXA-48): >256 µg/mL
- MIC ([3]; strain CFR UFR37, genotype TEM-1, CTX-M-15, NDM-1): >256 µg/mL
- MIC ([3]; strain CFR UFR83, genotype TEM-3, AmpC): >256 µg/mL
- MIC ([3]; strain CFR UFR146, genotype TEM-1, KPC-2): >128 µg/mL
- MIC ([3]; strain CFR UFR147, genotype TEM-1, CTX-M-15, OXA-1, OXA-181, OXA-10, OXA-9, NDM-1, ArmA, dfrA12, aadA2, antibiotic alone): >128 µg/mL
- MIC ATB in combination ([3]; strain CFR UFR147, with CLA @ 4 μg/mL): >128 µg/mL
- MIC ([3]; strain CFR UFR148, genotype TEM-1, TEM-2, CTX-M-15, NDM-1, antibiotic alone): >128 µg/mL
- MIC ATB in combination ([3]; strain CFR UFR148, with CLA @ 4 μg/mL): >128 µg/mL
- MIC ([3]; strain CFR UFR248, genotype CTX-M-15): >128 µg/mL
- MIC ([3]; strain CFR UFR249, genotype TEM-1, CTX-M-15): >128 µg/mL
- MIC ([3]; strain CFR UFR250, genotype TEM-1, SHV-28, CTX-M-15): >128 µg/mL
- MIC ([3]; strain CFR UFR251, genotype SHV-11, VIM-1, antibiotic alone): >128 µg/mL
- MIC ATB in combination ([3]; strain CFR UFR251, with CLA @ 4 μg/mL): >128 µg/mL
- MIC ([3]; strain CFR UFR252, genotype VIM-2, antibiotic alone): >128 µg/mL
- MIC ATB in combination ([3]; strain CFR UFR252, with CLA @ 4 μg/mL): >128 µg/mL
- MIC ([3]; strain CFR UFR253, genotype TEM-1, SHV-12, OXA-48): >128 µg/mL
- MIC ATB in combination ([3]; strain CFR UFR253, with CLA @ 4 μg/mL): >128 µg/mL
- MIC ([3]; strain CFR UFR254, genotype VEB-1b, OXA-48, qnrA): >128 µg/mL
- MIC ATB in combination ([3]; strain CFR UFR254, with CLA @ 4 μg/mL): >128 µg/mL
- MIC [4]: >128 µg/mL
- MIC ATB in combination [4]: >128 µg/mL
- MIC ([4]; strain KOX UFR21, genotype TEM-1, CTX-M-15, OXA-48): >256 µg/mL
- MIC ([4]; strain KOX UFR223, genotype SHV-11, OXA-48): >128 µg/mL
- MIC ([4]; strain KOX UFR224, genotype CTX-M-15, OXA-48): >128 µg/mL
- MIC ATB in combination [5]: >128 µg/mL
- MIC ATB in combination ([5]; CKO ROU, AF2 @ 8 μg/mL): 8 µg/mL
- MIC ([5]; strain CKO ROU, genotype TEM-1, SHV-12, CTX-M-15, OXA-1, OXA-48): >256 µg/mL
- MIC ([5]; strain CKO UFR149, genotype OXA-48): >128 µg/mL
- MIC ([5]; strain CKO UFR150, genotype TEM-1, OXA-48): >128 µg/mL
- MIC [6]: >128 µg/mL
- MIC ATB in combination [6]: >128 µg/mL and 128 µg/mL
- MIC ATB in combination ([6]; SMA UFR30, AF2 @ 8 μg/mL): 64 µg/mL
- MIC ATB in combination ([6]; SMA UFR239, CLA @ 4 μg/mL): 64 µg/mL
- MIC ([6]; strain SMA UFR30, genotype OXA-405): >256 µg/mL
- MIC ([6]; strain SMA UFR134, genotype TEM-1, BES-1): >128 µg/mL
- MIC ([6]; strain SMA UFR135, genotype TEM-1, KPC-2): >128 µg/mL
- MIC ([6]; strain SMA UFR136, genotype TEM-1, SHV-12, KPC-2): >128 µg/mL
- MIC ([6]; strain SMA UFR140, genotype IMP-1): >128 µg/mL
- MIC ([6]; strain SMA UFR141, genotype OXA-48): >128 µg/mL
- MIC ([6]; strain SMA UFR142, genotype OXA-48): >128 µg/mL
- MIC ([6]; strain SMA UFR143, genotype CTX-M-15, OXA-1, OXA-48): >128 µg/mL
- MIC ([6]; strain SMA UFR238, genotype OXA-48): >128 µg/mL
